Data reported in patent US9150553B2, “Carboxamide compounds and their use as calpain inhibitors” (AbbVie Deutschland GmbH & Co. KG, priority 2007, dated 2015).

Target: T1, calpain-I isolated from human erythrocytes (Homo sapiens, UniProt P07384)
T1 construct: calpain-I—isolated from human erythrocytes; purchased Calbiochem 208713; host or cells: human erythrocytes (native tissue isolate)
T1 sequence (P07384 1-714): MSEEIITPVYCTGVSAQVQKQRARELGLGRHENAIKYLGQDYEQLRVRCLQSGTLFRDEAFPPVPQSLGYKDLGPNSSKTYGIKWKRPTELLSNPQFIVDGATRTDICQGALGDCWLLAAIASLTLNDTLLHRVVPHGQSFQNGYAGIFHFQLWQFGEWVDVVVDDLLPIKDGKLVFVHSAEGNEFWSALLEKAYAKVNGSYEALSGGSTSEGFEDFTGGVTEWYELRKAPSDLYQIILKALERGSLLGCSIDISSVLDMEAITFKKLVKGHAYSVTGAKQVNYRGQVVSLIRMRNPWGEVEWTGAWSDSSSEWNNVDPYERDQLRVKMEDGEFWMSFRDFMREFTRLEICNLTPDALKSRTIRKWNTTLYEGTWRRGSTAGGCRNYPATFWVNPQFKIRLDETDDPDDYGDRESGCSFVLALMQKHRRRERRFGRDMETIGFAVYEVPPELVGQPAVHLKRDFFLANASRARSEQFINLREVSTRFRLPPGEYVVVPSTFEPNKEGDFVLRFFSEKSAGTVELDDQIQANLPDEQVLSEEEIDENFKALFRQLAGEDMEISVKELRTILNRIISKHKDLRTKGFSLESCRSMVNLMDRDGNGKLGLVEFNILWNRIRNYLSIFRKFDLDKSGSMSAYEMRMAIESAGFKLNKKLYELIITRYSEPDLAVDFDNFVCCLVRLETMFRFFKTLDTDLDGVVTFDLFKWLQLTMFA
T1 sequence (P04632 1-268 partner): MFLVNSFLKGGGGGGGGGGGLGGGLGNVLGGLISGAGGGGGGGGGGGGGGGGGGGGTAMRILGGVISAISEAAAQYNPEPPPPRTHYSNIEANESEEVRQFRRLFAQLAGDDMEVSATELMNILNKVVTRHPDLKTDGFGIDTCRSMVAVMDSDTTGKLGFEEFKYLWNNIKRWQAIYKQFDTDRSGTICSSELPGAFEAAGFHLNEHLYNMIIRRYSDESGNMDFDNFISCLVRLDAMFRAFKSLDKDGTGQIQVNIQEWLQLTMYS
Test: Calpain I enzyme inhibition, kinetic fluorescence assay
Format: biochemical
Settings: apparent Ki from IC50 by Cheng-Prussoff; pH 7.3, room temperature
Procedure: The following solutions and buffers were employed: • HBS (for 40 ml): 800 μl 1M HEPES; 2.16 ml 100 mM KCl; 4.8 ml 1M NaCl; 3.59 ml 5% glucose; 60 μl 1M MgSO4; 400 μl 100 mM Na pyruvate, 28.19 ml water; pH 7.2-7.5. • lysis buffer (for 20 ml): 400 μl 1M Tris pH 8.2; 2.74 ml 1M NaCl; 520 μl 0.5M EDTA; 2 ml 10% triton X-100; 0.8 ml (=1:25) CompletePlus (1 tablet/2 ml H2O); 200 μl 100 mM Pefabloc; 13.34 ml water, pH 8.2. • TBST (10×) (for 1I): 100 mM Tris (12.1 g); 1.5M NaCl (87 g); 1% Tween 20 (10 g), adjusted to pH 8. I. Enzyme Inhibition In Vitro: • Testing for blockade of the corresponding enzymic activities was carried out by means of kinetic fluorescence assays (excitation 390 nm, emission 460 nm). • Apparent Ki values were calculated from the experimentally determined IC50 values by the Cheng-Prussoff relation assuming a reversible competitive enzyme inhibition. The Km values of the substrates used under the assay conditions indicated above were: 90 μM (Z-Phe-Arg-AMC, cathepsin B), 10 μM (Z-Gly-Pro-Arg-AMC, cathepsin K), 2 μM (Z-Phe-Arg-AMC, cathepsin L), and 30 μM (Z-Val-Val-Arg-AMC, cathepsin S). • The indicated Ki values are averages of the inhibition constants calculated on the basis of 2 to 4 independent dose-effect plots. • The following assays were used: • 1. Calpain I: • 20 nM calpain-I—isolated from human erythrocytes (Calbiochem #208713), 100 μM Suc-Leu-Tyr-AMC (Bachem #I-1355) as substrate in buffer with 62 mM imidazole, 0.3 mM CaCl2, 0.10% CHAPS, 0.05% BSA, 1 mM DTT at pH 7.3 and room temperature. • 2. Cathepsin B: • 0.25 nM cathepsin B—isolated from human liver (Calbiochem #219362), 100 μM Z-Phe-Arg-AMC (Bachem #I-1160) as substrate 50 mM MES, 2 mM EDTA, 0.05% Brij 35, 2.5 mM L-cysteine, pH 6.0, room temperature. • 3. Cathepsin K: • 3 nM cathepsin K—activated from recombinant human procathepsin K from E. coli (Calbiochem #342001), 10 μM Z-Gly-Pro-Arg-AMC (Biomol #P-142) as substrate in 50 mM MES, 2 mM EDTA, 0.05% Brij 35, 2.5 mM L-cysteine, pH 6.0, room temperature. • 4. Cathepsin L: • 1 nM cathepsin L—isolated from human liver (Calbiochem #219402), 2 μM Z-Phe-Arg-AMC (Bachem #I-1160) as substrate in 50 mM MES, 2 mM EDTA, 0.05% Brij 35, 2.5 mM L-cysteine, pH 6.0, room temperature. • 5. Cathepsin S: • 0.5 nM recombinant human cathepsin S from E. coli (Calbiochem #219343), 20 μM Z-Val-Val-Arg-AMC (Bachem #I-1540) as substrate in 50 mM MES, 2 mM EDTA, 0.05% Brij 35, 2.5 mM L-cysteine, pH 6.0, room temperature. • The results of the in vitro determination are indicated in Table 2. The following abbreviations are used in Table 2: • The “Calpain activity” column, ++ stands for a calpain Ki (Ki(calpain)) of ≦40 nM, + means: 40 nM<Ki(Calpain)≦100 nM, 0 means 100 nM<Ki(Calpain)≦1 μM, − means 1 μM<Ki(Calpain)≦10 μM, −− means Ki(Calpain)>10 μM. • The “Sel. cat. B” column indicates the Ki(cathepsin B)/Ki(calpain) ratio. In this connection, ++ means a Ki(cathepsin B)/Ki(calpain) ratio of ≧30 and + means≦10≦Ki(cathepsin B)/Ki(calpain)<30. • The “Sel. cat. K” column indicates the Ki(cathepsin K)/Ki(calpain) ratio. In this connection, ++ means a Ki(cathepsin K)/Ki(calpain) ratio of ≧30 and + means 10≦Ki(cathepsin K)/Ki(calpain)<30. • The “Sel. cat. L” column indicates the Ki(cathepsin L)/Ki(calpain) ratio. In this connection, ++ means a Ki(cathepsin L)/Ki(calpain) ratio of ≧50 and + means 30≦Ki(cathepsin L)/Ki(calpain)<50. • The “Sel. cat. S” column indicates the Ki(cathepsin S)/Ki(calpain) ratio. […]

- Ki: > 10 µM
SMILES: NC(=O)C1(C(Cc2ccccc2)NC(=O)c2cccnc2-n2ccc(-c3cccc(C(F)(F)F)c3)n2)OCCO1 (stereo not shown) [Compound I-2, N-{1-[2-(Aminocarbonyl)-1,3-dioxolan-2-yl]-2-phenylethyl}-2-{3-[3-(trifluoromethyl)phenyl]-1H-pyrazol-1-yl}nicotinamide]
